From US10815222B2, “Compounds for use in the treatment of kinetoplastid infection” (C.N.C.C.S. S.c.a.r.l. COLLEZIONE NAZIONALE DEI COMPOSTI …, priority 2016, dated 2020)

Test system: Bloodstream form of Trypanosoma brucei, strain Lister 427
Assay: Trypanosoma brucei growth inhibition assay (CellTiter-Glo, 24 h)
Format: cell-based
Conditions: Trypanosoma brucei; T. Brucei Growth Inibition Assay, class symbols; read-out: T. Brucei GI EC50
In short: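 Growth read-out was CellTiter-Glo luminescence after 24 h at 37 °C incubation of 1500 bloodstream-form Lister 427 trypanosomes per well with compound, in supplemented IMDM containing 10% FBS and at most 0.25% DMSO.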

| SMILES | EC50 |
| --- | --- |
| CCC(=O)CCC(=O)N1CCN(C(=O)Cc2c(C)[nH]c3ccc(OC)cc23)C(c2ncc(-c3ccc4ccccc4c3)[nH]2)C1 (centres unmarked) | 100 to 500 nM |
| COc1nc2ccccc2cc1-c1cnc(C2CN(CC3CCOC3)CCN2C(=O)c2sc(-c3cnccn3)nc2C)[nH]1 (centres unmarked) | 1010 to 5000 nM |
| COc1nc2ccccc2cc1-c1cnc(C2CN(CC3CCOC3)CCN2C(=O)Cn2nc(C)c3ccccc3c2=O)[nH]1 (centres unmarked) | 510 to 1000 nM |
| CCC(=O)CCCN1CCN(S(=O)(=O)c2ccc3ccccc3c2)C(c2ncc(-c3ccc4ccccc4c3)[nH]2)C1 (centres unmarked) | 1010 to 5000 nM |
| COc1ccc2nc(C)n(CC(=O)N3CCN(Cc4ccn(C)n4)C[C@H]3c3ncc(-c4cc5ccccc5nc4OC)[nH]3)c2c1 [(S)-2-(6-methoxy-2-methyl-1H-benzo[d]imidazol-1-yl)-1-(2-(5-(2-methoxyquinolin-3-yl)-1H-imidazol-2-yl)-4-((1-methyl-1H-pyrazol-3-yl)methyl)piperazin-1-yl)ethan-1-one] | < 100 nM |
| COc1nc2ccccc2cc1-c1cnc(C2CN(CC3CCOC3)CCN2C(=O)c2cnc3ccccc3c2)[nH]1 (centres unmarked) | 1010 to 5000 nM |
| COc1ccc2nc(C(F)(F)F)n(CC(=O)N3CC[C@H](NC4COC4)C[C@H]3c3ncc(-c4cc5ccccc5nc4OC)[nH]3)c2c1 [2-(6-methoxy-2-(trifluoromethyl)-1H-benzo[d]imidazol-1-yl)-1-((2S,4S)-2-(5-(2-methoxyquinolin-3-yl)-1H-imidazol-2-yl)-4-(oxetan-3-ylamino)piperidin-1-yl)ethan-1-one] | < 100 nM |
| COc1nc2ccccc2cc1-c1cnc(C2CN(C(=O)OCc3ccccc3)CCN2C(=O)Cc2c(C)[nH]c3ccc(F)cc23)[nH]1 (centres unmarked) | 1010 to 5000 nM |
| COc1ccc2nc(C(F)(F)F)n(CC(=O)N3CC[C@H](N4CCOCC4)C[C@H]3c3ncc(-c4cc5ccccc5nc4OC)[nH]3)c2c1 [2-(6-methoxy-2-(trifluoromethyl)-1H-benzo[d]imidazol-1-yl)-1-((2S,4S)-2-(5-(2-methoxyquinolin-3-yl)-1H-imidazol-2-yl)-4-morpholinopiperidin-1-yl)ethan-1-one] | < 100 nM |
| CN1CCN(C(=O)Cc2cn(C)c3ccccc23)C(c2ncc(-c3ccc4ccccc4c3)[nH]2)C1 (centres unmarked) | 1010 to 5000 nM |
| COc1nc2ccccc2cc1-c1cnc([C@@H]2CN(CC3COC3)CCN2C(=O)Cn2c(C(F)(F)F)nc3ccccc32)[nH]1 [(S)-1-(2-(5-(2-methoxyquinolin-3-yl)-1H-imidazol-2-yl)-4-(oxetan-3-ylmethyl)piperazin-1-yl)-2-(2-(trifluoromethyl)-1H-benzo[d]imidazol-1-yl)ethan-1-one] | < 100 nM |
| COc1nc2ccccc2cc1-c1cnc([C@@H]2CN(CC3CCOC3)CCN2C(=O)Cn2c(C)nc3ccc(S(C)(=O)=O)cc32)[nH]1 (some centres unmarked) | 100 to 500 nM |
| COc1nc2ccccc2cc1-c1cnc([C@@H]2CN(C3CCS(=O)(=O)CC3)CCN2C(=O)Cn2c(C(F)(F)F)nc3ccccc32)[nH]1 [(S)-1-(4-(1,1-dioxidotetrahydro-2H-thiopyran-4-yl)-2-(5-(2-methoxyquinolin-3-yl)-1H-imidazol-2-yl)piperazin-1-yl)-2-(2-(trifluoromethyl)-1H-benzo[d]imidazol-1-yl)ethan-1-one] | < 100 nM |
| COc1nc2ccccc2cc1-c1cnc([C@@H]2CN(C3CCOCC3)CCN2C(=O)Cn2c(C(F)(F)F)nc3ccccc32)[nH]1 [(S)-1-(2-(5-(2-methoxyquinolin-3-yl)-1H-imidazol-2-yl)-4-(tetrahydro-2H-pyran-4-yl)piperazin-1-yl)-2-(2-(trifluoromethyl)-1H-benzo[d]imidazol-1-yl)ethan-1-one] | < 100 nM |
| CCCCCCN1CCN(C(=O)Cc2c[nH]c3cccnc23)C(c2ncc(-c3ccc4ccccc4c3)[nH]2)C1 (centres unmarked) | 1010 to 5000 nM |
| COc1ccc2cc(C)n(CC(=O)N3CCN(Cc4ccn(C)n4)CCC3c3ncc(-c4cc5ccccc5nc4OC)[nH]3)c2c1 (centres unmarked) [2-(6-methoxy-2-methyl-1H-indol-1-yl)-1-(7-(5-(2-methoxyquinolin-3-yl)-1H-imidazol-2-yl)-4-((1-methyl-1H-pyrazol-3-yl)methyl)-1,4-diazepan-1-yl)ethan-1-one] | < 100 nM |
| COc1ccc2nc(C)n(CC(=O)N3CCN(CC4COC4)CCC3c3ncc(-c4cc5ccccc5nc4OC)[nH]3)c2c1 (centres unmarked) | 510 to 1000 nM |
| COc1ccc2nc(C)n(CC(=O)N3CCN(CC4CCOC4)C[C@H]3c3ncc(-c4cc5ccccc5cn4)[nH]3)c2c1 (stereo partly drawn) [1-((2S)-2-(5-(isoquinolin-3-yl)-1H-imidazol-2-yl)-4-((tetrahydrofuran-3-yl)methyl)piperazin-1-yl)-2-(6-methoxy-2-methyl-1H-benzo[d]imidazol-1-yl)ethan-1-one] | 100 to 500 nM |
| COc1nc2ccccc2cc1-c1cnc([C@@H]2CN(Cc3ccon3)CCN2C(=O)Cn2c(C(F)(F)F)nc3ccccc32)[nH]1 [(S)-1-(4-(isoxazol-3-ylmethyl)-2-(5-(2-methoxyquinolin-3-yl)-1H-imidazol-2-yl)piperazin-1-yl)-2-(2-(trifluoromethyl)-1H-benzo[d]imidazol-1-yl)ethan-1-one] | < 100 nM |
| COc1nc2ccccc2cc1-c1cnc(C2CN(CC3CCOC3)CCN2C(=O)Cn2c(C)nc3ccc(F)cc32)[nH]1 (centres unmarked) | 100 to 500 nM |
| COc1ccc2nc(C(F)(F)F)n(CC(=O)N3C[C@@H](NC4CCOC4)CC[C@H]3c3ncc(-c4cc5ccccc5nc4OC)[nH]3)c2c1 (some centres unmarked) | 510 to 1000 nM |
| COc1ccc2nc(C)n(CC(=O)N3CCN(Cc4cocn4)C[C@H]3c3ncc(-c4cc5ccccc5nc4OC)[nH]3)c2c1 [(S)-2-(6-methoxy-2-methyl-1H-benzo[d]imidazol-1-yl)-1-(2-(5-(2-methoxyquinolin-3-yl)-1H-imidazol-2-yl)-4-(oxazol-4-ylmethyl)piperazin-1-yl)ethan-1-one] | < 100 nM |
| COc1ccc2nc(C)n(CC(=O)N3CCN(CC4CCOC4)C[C@H]3c3ncc(-c4ccc(-c5ccccc5)nc4OC)[nH]3)c2c1 (some centres unmarked) | 510 to 1000 nM |
| COc1nc2ccccc2cc1-c1cnc(C2CN(CC3CCOC3)CCN2C(=O)Cc2c[nH]c3ccncc23)[nH]1 (centres unmarked) | 1010 to 5000 nM |
| COc1nc2ccccc2cc1-c1cnc([C@@H]2CN(CC3CCOC3)CCN2C(=O)Cn2c(CC(F)(F)F)nc3ccccc32)[nH]1 (some centres unmarked) | 100 to 500 nM |
| COc1ccc2nc(C)n(CC(=O)N3CCN(CC4CCOC4)C[C@H]3c3ncc(-c4ccc5ccccc5n4)[nH]3)c2c1 (some centres unmarked) | 1010 to 5000 nM |
| COc1ccc2nc(C(F)(F)F)n(CC(=O)N3CCN(Cc4cscn4)CCC3c3ncc(-c4cc5ccccc5nc4OC)[nH]3)c2c1 (centres unmarked) [2-(6-methoxy-2-(trifluoromethyl)-1H-benzo[d]imidazol-1-yl)-1-(7-(5-(2-methoxyquinolin-3-yl)-1H-imidazol-2-yl)-4-(thiazol-4-ylmethyl)-1,4-diazepan-1-yl)ethan-1-one] | < 100 nM |
| Cc1[nH]c2ccccc2c1CC(=O)N1CCN(CC2CCOC2)CC1c1ncc(-c2ccc3ccccc3c2)[nH]1 (centres unmarked) [2-(2-methyl-1H-indol-3-yl)-1-(2-(5-(naphthalen-2-yl)-1H-imidazol-2-yl)-4-((tetrahydrofuran-3-yl)methyl)piperazin-1-yl)ethan-1-one] | < 100 nM |
| COc1nc2ccccc2cc1-c1cnc([C@@H]2CN(CC3CCOC3)CCN2C(=O)Cn2c(C(C)(C)C)nc3ccccc32)[nH]1 (stereo partly drawn) [2-(2-(tert-butyl)-1H-benzo[d]imidazol-1-yl)-1-((2S)-2-(5-(2-methoxyquinolin-3-yl)-1H-imidazol-2-yl)-4-((tetrahydrofuran-3-yl)methyl)piperazin-1-yl)ethan-1-one] | < 100 nM |
